Data published in patent US20100256229A1, “COMPOSITIONS OF CHOL[…]” (priority 2009, published 2010).
Where a name gives a salt, the structure may show the parent alone.

Experiments:
[1] = tested on: male Wistar rats; test: Wake promotion, EEG/EMG sleep-wake monitoring (SCORE2004); settings: for duration of wakefulness (total minutes of sleep loss): dosed at CT-5, various dose ranges
Experimental: Test compounds in various dose ranges or vehicle were administered to male Wistar rats 5 hours after lights on (CT-5). EEG, EMG, locomotor activity, drink- and food-related activity, and body temperature were concurrently monitored for 30 hr before and after treatment from rats living in separate isolated recording chambers.

[2] = Solid state and solution stability; settings: for solid state stability to heat: 40° C. for 7 days; for solid state stability to UV: 220 W-h/m^2; for solid state stability to visible light: visible light exposure, 7.3×10^6 lux hours
[3] = Mechanical stress (micronizing); assay type: physicochemical; settings: micronizing 20 minutes at 30 Hz, after standing 20 minutes; ball mill stress
Description: FIG. 13 is two microscopic views of the hydrogen fumarate salt of compound 3d under mechanical stress.

[4] = Hygroscopicity testing and sorption isotherm; assay type: physicochemical; settings: for hygroscopicity testing, appearance: sulfate after 3 days, fumarate after 7 days
[5] = Solubility (formulation studies)
[6] = biological target: T1, rhAChE (Homo sapiens, UniProt P22303); settings: for IC50: read-out: rhAChE IC50
T1 sequence (P22303 32-614): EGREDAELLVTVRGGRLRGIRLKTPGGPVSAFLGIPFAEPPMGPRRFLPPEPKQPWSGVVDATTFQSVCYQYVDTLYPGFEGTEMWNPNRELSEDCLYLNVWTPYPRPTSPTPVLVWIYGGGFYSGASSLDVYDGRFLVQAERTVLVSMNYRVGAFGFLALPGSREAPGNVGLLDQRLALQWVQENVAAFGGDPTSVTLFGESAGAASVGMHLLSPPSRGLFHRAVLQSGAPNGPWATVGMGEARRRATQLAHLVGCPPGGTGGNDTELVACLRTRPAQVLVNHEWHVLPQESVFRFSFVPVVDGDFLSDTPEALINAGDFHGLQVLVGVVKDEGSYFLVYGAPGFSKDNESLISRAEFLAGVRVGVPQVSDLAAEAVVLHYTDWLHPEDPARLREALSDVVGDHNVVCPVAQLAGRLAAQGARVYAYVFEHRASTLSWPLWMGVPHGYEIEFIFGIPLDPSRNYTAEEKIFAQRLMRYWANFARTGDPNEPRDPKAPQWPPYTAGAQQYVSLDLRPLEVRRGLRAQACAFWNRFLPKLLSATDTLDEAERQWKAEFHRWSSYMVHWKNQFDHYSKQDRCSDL

[7] = Maximum Tolerated Dose determination
Experimental: The in vivo effectiveness of the stigmine compounds in vivo inhibitors was evaluated. Initially, the Maximum Tolerated Dose (MTD) was determined for each compound. The MTD was defined as the dose at which clear, yet reversible and non-life threatening cholinergic effects were observed.
(§1) Following administration, rats were sacrificed and blood and brain samples were collected, processed and ChE activity was determined spectrophotometrically as described above.

[8] = biological target: T2, BuChE (human, purified from) (Homo sapiens, UniProt P06276); test: In vitro inhibition of BuChE, modified Ellman procedure; assay type: biochemical; settings: purified human butyrylcholinesterase (plasma); mean of two or three independent experiments; read-out: hBuChE IC50
T2 construct: BuChE (human, purified from erythrocytes); from tissue
T2 sequence (P06276 29-602): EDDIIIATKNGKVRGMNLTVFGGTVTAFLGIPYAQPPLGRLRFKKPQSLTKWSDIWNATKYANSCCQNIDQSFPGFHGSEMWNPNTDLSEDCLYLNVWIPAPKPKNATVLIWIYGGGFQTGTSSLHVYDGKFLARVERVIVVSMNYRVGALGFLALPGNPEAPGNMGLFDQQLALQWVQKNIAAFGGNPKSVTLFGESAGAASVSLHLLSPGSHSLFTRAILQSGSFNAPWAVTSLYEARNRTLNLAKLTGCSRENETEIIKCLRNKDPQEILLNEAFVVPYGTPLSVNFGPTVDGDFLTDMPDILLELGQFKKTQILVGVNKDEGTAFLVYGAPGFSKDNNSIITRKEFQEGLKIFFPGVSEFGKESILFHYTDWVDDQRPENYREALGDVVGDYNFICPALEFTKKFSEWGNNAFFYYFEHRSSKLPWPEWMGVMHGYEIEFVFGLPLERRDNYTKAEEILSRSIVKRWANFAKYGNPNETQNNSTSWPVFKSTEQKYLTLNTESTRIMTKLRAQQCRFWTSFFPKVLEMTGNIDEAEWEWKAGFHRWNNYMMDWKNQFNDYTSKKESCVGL

[9] = biological target: T1, rhAChE; test: Decarbamylation / reconstitution of inhibited enzyme; assay type: biochemical; settings: for Decarbamylation rate k: phosphate buffer, 37° C., first-order model
Experimental: Next, the release of amphetamine from inhibited cholinesterase was investigated indirectly by monitoring reconstitution of enzyme activity as described above. […] The enzyme was separated from small organic molecules (carbamate and possible degradation products) by size exclusion chromatography over a Sephadex column. Purified, inhibited enzyme was incubated in phosphate buffer at 37° C., aliquots were drawn at various time points and the enzymatic activity was determined as described above. The data were plotted as the natural logarithm of the percent inhibition versus time according to a first-order kinetics model. The decarbamylation rate constant k was determined as the slope of this line. The halflife t1/2 is directly related to k (k=−ln(0.500)/t1/2).

[10] = tested on: total brain cholinesterase; test: In vivo inhibition of brain cholinesterase after oral dosing; design: species or system rats
Experimental: as §1

[11] = biological target: Recombinant human cholinesterase (Homo sapiens, UniProt P22303); test: Amphetamine release from inhibited enzyme, LC/MS/MS; assay type: biochemical
Recombinant human cholinesterase, sequence (P22303 32-614): as the sequence (P22303 32-614) above

[12] = tested on: scopolamine model of passive avoidance; test: Scopolamine model of passive avoidance; assay type: in vivo, rats; settings: 8 and 12 mg/kg i.p. 30 minutes before training; scopolamine 0.2 mg/kg s.c.; p<0.01
Experimental: Prior to training, rats were injected with scopolamine hydrobromide (0.2 mg/kg, s.c, 40 minutes before training) and with either saline or compound 4a (8, 12, 16 or 24 mg/kg, i.p, 30 minutes prior to training). The animals received a retention test 24 hours following training. The retention test was identical to training except that no foot-shock or drug was delivered. Latency to enter the dark chamber was recorded.

[13] = tested on: total plasma cholinesterase; test: In vivo inhibition of plasma cholinesterase after oral dosing; design: species or system rats
Experimental: as §1

[14] = tested on: rats trained to discriminate methamphetamine from saline; test: Drug discrimination (methamphetamine versus saline); assay type: in vivo; settings: 0.1-3.2 mg/kg i.p. or 0.32-10 mg/kg p.o.
Description: Drug discrimination is an operant paradigm that enables assessment of drug abuse liability (Yasar & Bergman, 1994. Amphetamine-like effect of 1-deprenyl (selegiline) in drug discrimination studies. Clin. Pharmacol. Therap. 56 (S78), 768-773). In this paradigm, psychostimulant properties of compounds may be determined in rats trained to discriminate methamphetamine from saline. Hungry rats are initially placed in a test apparatus where they learn that pressing either of two levers results in delivery of a food pellet. […]. On other days, rats are pretreated with vehicle, and must then select the opposite lever in order to obtain food. In this way, rats must learn to use the interoceptive cues generated by the psychostimulant drug to guide its choice of levers. Once lever pressing to a predetermined criterion has been established, a test compound can be administered. […]. If the rat chooses the methamphetamine lever, the test drug is said to have shown stimulus generalization; that is, it is perceived to be methamphetamine-like by the rat. […].

[15] = 60 minutes after oral dosing at MTD or highest dose tested, n = 4
[16] = oral dosing at MTD, mean of three measurements between 30 and 180 min following dosing

In the case of `C[C@@H](Cc1ccccc1)NC(=O)Oc1cccc([C@H](C)N(C)C)c1` [C, s-riva-d-amphetamine], the “duration of wakefulness (total minutes of sleep loss)” value [1] is reported as “dose-related increase in wakefulness”.

In the case of `C[C@H](Cc1ccccc1)N(C)C(=O)Oc1cccc([C@H](C)N(C)C)c1` [Compound 3d, 3-((S)-1-(dimethylamino)ethyl)phenyl methyl-((R)-1-phenylpropan-2 yl)carbamate], the “solid state stability to heat” value [2] is reported as “stable”, the “solid state stability to UV” value [2] is reported as “stable” and the solution stability ([2]; pH 4, 5, 6, after 7 days, HPLC recovery) is reported as “stable”. The “solid state stability to visible light” value [2] was “no change”, the mechanical stress [3] was “instability to extreme thermal conditions” and the “hygroscopicity testing by DSC and XRPD” value ([4]; 40° C./75 RH, 7 days) was “stability over 7 days”. For the same compound, the “maximum moisture uptake (sorption isotherm)” value ([4]; at 75 RH) was “about 1%”, the solubility ([5]; pH 3, aqueous buffer) was greater than 50 mg/mL and the solubility ([5]; sixteen vehicles for oral dosing (rodents), aqueous with cosolvent or surfactant or cyclodextrin) was greater than 50 mg/mL.

For `C[C@@H](Cc1ccccc1)NC(=O)Oc1cccc([C@H](C)N(C)C)c1` [Compound 4a], the “more selective for AChE than rivastigmine” value [6] was 225 fold, the IC50 [6] was 508 nM and the MTD ([7]; rat, in vivo, po) was greater than 100 mg/kg. It also gave an IC50 [8] of 7320 nM, an enzyme reconstitution ([9]; at 4 h) of 80% and a Decarbamylation rate k [9] of 0.558 h⁻¹. The “Brain ChEI” value [10, 15] was 72%, the “d-amphetamine in decarbamylation aliquots” value ([11]; aliquots drawn 4 h later) was 53 ng/mL and the “amphetamine in decarbamylation aliquots” value ([11]; aliquots drawn at t=0) was “did not contain amphetamine”. For the same compound, the “scopolamine-induced amnesia, step-through latency at 24 h retention test” value [12] was “alleviated” and the “Plasma ChEI” value [13, 15] was 59%.

With `C[C@H](Cc1ccccc1)NC(=O)Oc1cccc([C@H](C)N(C)C)c1` [Compound 4b] the IC50 [6] was 404 nM, the MTD ([7]; rat, in vivo, po) was 32 mg/kg and the IC50 [8] was 416 nM. For the same compound, the Decarbamylation rate k [9] was 0.057 h⁻¹, the “Brain ChEI” value [10, 15] was 25% and the “Plasma ChEI” value [13, 15] was 26%.

With `C[C@@H](c1cccc(OC(=O)N(C)[C@@H](C)Cc2ccccc2)c1)N(C)C` [Compound 4c] the MTD ([7]; rat, in vivo, po) was greater than 64 mg/kg, the IC50 [8] was 334 nM and the Decarbamylation rate k [9] was 0.003 h⁻¹. For the same compound, the “Brain ChEI” value [10, 15] was 50% and the “Plasma ChEI” value [13, 15] was 50%.

`CC(c1cccc(OC(=O)N(C)C(C)Cc2ccccc2)c1)N(C)C` (centres unmarked) [Compound 4d] showed an MTD ([7]; rat, in vivo, po) of 10 mg/kg, an IC50 [8] of 24400 nM and a Decarbamylation rate k [9] of 0.011 h⁻¹. The “Brain ChEI” value [10, 15] was 64% and the “Plasma ChEI” value [13, 15] was 45%.

In the case of `C[C@H](Cc1ccccc1)NC(=O)Oc1cccc([C@H](C)N(C)C)c1` [Compound A, s-riva-l-amphetamine], the “duration of wakefulness (total minutes of sleep loss)” value [1] is reported as “dose-related increase in wakefulness”.

With `C[C@H](Cc1ccccc1)N(C)C(=O)Oc1cccc([C@H](C)N(C)C)c1` [Compound B, s-riva-l-methamphetamine] the “stimulus generalization to methamphetamine (lever selection)” value [14] was “did not select the methamphetamine lever”, the “duration of wakefulness (total minutes of sleep loss)” value [1] was “dose-related increase in wakefulness” and the rebound hypersomnolence ([1]; following administration) was “not observed”. For the same compound, the body temperature ([1]; rat, in vivo) was “reduction in body temperature”, the locomotor activity ([1]; rat, in vivo) was “did not cause locomotor hyperactivity” and the “increase in wakefulness compared with reference compounds” value ([1]; versus d-amphetamine, rivastigmine, modafinil) was “surpassed that seen with the reference compounds tested”.

For `C[C@@H](c1cccc(OC(=O)N(C)[C@@H](C)Cc2ccccc2)c1)N(C)C` [D, s-riva-d-methamphetamine], the “duration of wakefulness (total minutes of sleep loss)” value [1] was “dose-related increase in wakefulness”.

In the case of `CCN(C)C(=O)Oc1cccc([C@H](C)N(C)C)c1` [Rivastigmine, rivastigmine, reference compound], the MTD ([7]; oral, dose with clear, reversible, non-life threatening cholinergic effects, or highest dose tested) is reported as 5 mg/kg, the “Brain ChEI” value [10, 16] is reported as 56% and the “Plasma ChEI” value [13, 16] is reported as 39%. The “duration of wakefulness (total minutes of sleep loss)” value [1] was “increased wakefulness”.

In the case of `C[C@H](N)Cc1ccccc1` [d-amphetamine, reference compound], the “duration of wakefulness (total minutes of sleep loss)” value [1] is reported as “increased the duration of wakefulness”.

For `C[C@H](Cc1ccccc1)N(C)C(=O)Oc1cccc([C@H](C)N(C)C)c1.O=C(O)/C=C/C(=O)O` [hydrogen fumarate salt of compound 3d, 3-((S)-1-(Dimethylamino)ethyl)phenyl methyl-((R)-1-phenylpropan-2 yl)carbamate Hydrogen Fumarate], the “solid state stability to heat” value [2] was “stable”, the “solid state stability to UV” value [2] was “stable” and the “chemical stability in water” value ([2]; up to 7 days at 40° C.) was “stable”. For the same compound, the “solid state stability to visible light” value [2] was “stable”, the mechanical stress [3] was “gumming” and the “hygroscopicity testing, appearance” value ([4]; 40° C./75 RH) was “solid”. For the same compound, the “hygroscopicity, analysis by microscopy” value ([4]; after 7 days at 75% relative humidity) was “remains crystalline with traces of amorphous material”.

In the case of `C[C@H](Cc1ccccc1)N(C)C(=O)Oc1cccc([C@H](C)N(C)C)c1` [hydrogen sulfate salt of compound 3d, 3-(S)-1-(Dimethylamino)ethyl)phenyl methyl-((R)-1-phenylpropan-2 yl)carbamate Hydrogen Sulfate], the “hygroscopicity testing, appearance” value ([4]; 40° C./75 RH) is reported as “deliquesces”.

In the case of `NC(=O)C[S+]([O-])C(c1ccccc1)c1ccccc1` (centres unmarked) [modafinil, reference compound], the “duration of wakefulness (total minutes of sleep loss)” value [1] is reported as “increased the duration of wakefulness”.
